Measurements taken from patent US20250282798A1, “HETEROARYL-SUBSTITUTED BICYCLIC COMPOUND AND USE THEREOF” (Medshine Discovery Inc., priority 2022, published 2025).

Assays:
[1] = Pharmacokinetic evaluation in mice; format: in vivo, female Balb/c mice
Procedure: Assay procedure: 10% DMSO+20% PEG400+70% (30% SBE-P3-CD aqueous solution) (the trifluoroacetate of compound 4, the trifluoroacetate of compound 9) or 10% SBE-β-CD aqueous solution (the trifluoroacetate of compound 24-3) was injected into female Balb/c mice (overnight fasting, 7-9 weeks old) via the tail vein. Female Balb/c mice (overnight fasting, 7-9 weeks old) were gavaged with 10% DMSO+20% PEG400+70% (30% SBE-β-CD aqueous solution (the trifluoroacetate of compound 4, the trifluoroacetate of compound 9) or 10% SBE-P3-CD aqueous solution (the trifluoroacetate of compound 24-3) at dosages shown in Table 7. About 30 μL of blood of the two groups of animals was collected from the jugular vein at 0.0833, 0.25, 0.5, 1.0, 2.0, 4.0, 8.0, and 24 hours after the administration, and from the tail vein at 0.25, 0.5, 1.0, 2.0, 4.0, 8.0, and 24 hours after the administration, respectively, and placed in an anticoagulant tube with EDTA-K2 added. The tube was centrifuged to separate the plasma. The plasma concentration was assayed by LC-MS/MS. The relevant pharmacokinetic parameters were calculated with WinNonlin™ Version 6.3 (Pharsight, Mountain View, CA) pharmacokinetic software using the non-compartmental linear logarithmic trapezoidal method.

human GLK = human GLK (Homo sapiens (Human), UniProt Q8IVH8); assay: Kinase activity assay using ADP-Glo method, GLK; format: biochemical; conditions: GLK enzyme concentration 8 nM; ATP 20 μM
Procedure: The IC50 value was assayed by the kinase activity assay using ADP-Glo method to evaluate the inhibitory ability of a test compound on human GLK.
(§1) Enzyme buffer conditions: 50 mM Hepes (pH 7.5), 10 mM MgCl2, 1 mM EGTA, 0.01% Brij35, 2 mM DTT.
Preparation of the mixture of kinase and substrate: the concentration of GLK in the reaction solution was 8 nM, the concentration of ATP was […], and the concentration of MBP was 0.05 mg/mL.
(§2) Assay steps: A compound was diluted 4-fold with DMSO in a dilution plate, with a final initial concentration of […] and 10 concentration gradient points. The compound was diluted 50-fold into the kinase reaction buffer, and the mixture was shaken on a shaker for 20 minutes. The kinase was prepared with the enzyme reaction buffer. 2 μL of kinase was added to each well of a reaction plate. 1 μL of the diluted compound in the buffer was added to each well. The plate was sealed with a sealing film, centrifuged at 1000 g for 30 seconds, and placed at room temperature for 10 minutes. The mixed solution of ATP/MBP was prepared with the enzyme reaction buffer. 2 μL of the mixed solution of ATP/MBP was added to the reaction plate. The plate was sealed with a sealing film, and centrifuged at 1000 g for 30 seconds. The mixture in the plate was reacted at room temperature for 60 minutes. 4 μL of ADP-Glo was transferred to the 384 reaction plate, and centrifuged at 1000 rpm/min for 1 min. The plate was incubated at 25° C. for 40 min. 8 μL of detection solution was transferred to the 384 reaction plate, and centrifuged at 1000 rpm/min for 1 min. The plate was incubated at 25° C. for 40 min. The RLU (relative luminescence unit) signal was read with a BMG microplate reader, and the signal intensity was used to characterize the activity of the kinase.
(§3) The kinase activity data were expressed as the comparison of the kinase activity of a group with a test compound and the kinase activity of the blank group (containing only DMSO). The IC50 value was obtained by curve fitting using Prism software (GraphPad7.0).

MDR1 (P-glycoprotein) = assay: Permeability evaluation in MDR1-MDCK II cells; format: in vitro ADME; conditions: dog
Procedure: Cell line: The MDR1-MDCK II cell line authorized by Piet Borst's laboratory at the Netherlands Cancer Research Institute was used in this assay as an in vitro model for the permeability evaluation assay. The cells were inoculated in a Transwell-96 well cell plate at a density of 2.3×10^5 cells/cm^2, and cultured in a carbon dioxide incubator for 4-7 days before use in the transport assay.
The administration concentration of the test sample was 2.00 μM.
Test direction and number of parallel samples: bidirectional A-B and B-A, 2 parallels
Transport buffer (TB): HBSS solution containing 10 mM HEPES (pH 7.40±0.05)
Incubation conditions: 37±1° C., 5% CO2, incubated for 150 minutes
Control compounds: Nadolol and metoprolol were used as low-permeability and high-permeability control compounds. Digoxin was used as a substrate of P-glycoprotein. The administration concentration of nadolol and metoprolol was 2.00 μM, and the administration concentration of digoxin was 10.0 μM.
After the transport assay, the integrity of the MDR1-MDCK II cell layer was assayed by the Lucifer Yellow Rejection Assay. The remaining solution in the apical and basolateral wells was removed. 75 μL of TB containing 100 μM Lucifer Yellow was added to the apical well, and 250 μL of TB was added to the basolateral well. The cell plate was incubated in a cell culture incubator at 37±1° C., 5% CO2 and saturated humidity for 30 minutes. Then, 20 μL of sample was taken from the apical well and mixed with 60 μL of TB, and 80 μL of sample was taken from the basolateral well. The relative fluorescence unit (RFU) was measured at 425/528 nm (excitation/emission) using a microplate reader.
In this assay, the sample analysis of the test samples and control compounds of nadolol, metoprolol, and digoxin was performed by liquid chromatography-tandem mass spectrometry (LC-MS/MS). The retention time of the analytes and internal standards, chromatogram acquisition, and chromatogram integration were processed using the software Analyst (Sciex, Framingham, MA, USA). The sample analysis was semi-quantitatively determined using the peak area of analyte and the peak area of internal standard.
VR is the volume of the receiver end solution (0.075 mL for side A, and 0.25 mL for side B); Area is the relative surface area of the cell monolayer (0.0804 cm2); Time is the incubation time (9000 s); C0 is the peak area ratio of the compound at the administration end; VD is the volume of the administration end (0.075 mL for side A, and 0.25 mL for side B); CD and CR are the peak area ratios of the compound at the administration end and the receiver end, respectively.

[2] = In vitro metabolic stability in human liver microsomes; format: in vitro ADME; conditions: 1 μM compound, 0.5 mg/mL protein
Procedure: The in vitro metabolic stability of the compounds of the present disclosure in human was investigated by the metabolic stability in human liver microsomes.
Assay conditions: 1 μM of a compound was incubated with human liver microsomes supplemented with NADPH regeneration system at 37° C. for a certain period of time up to 60 minutes. The concentration of the compound in the resulting sample was assayed by LC-MS/MS method.
Assay procedure: 96-well incubation plates were named T0, T5, T15, T30, T45, T60, Blank60 and NCF60, respectively. The reaction time corresponding to the incubation plates were 0, 5, 15, 30, 45 and 60 minutes, respectively. No test sample or control compound was added to the Blank60 plate, and samples were taken after 60 minutes of incubation. Potassium phosphate buffer was used instead of NADPH regeneration system solution in the NCF60 plate, and the plate was incubated for 60 minutes. All the samples of the time points were from a single well.
5 μL of a test sample or control sample working solution and 100 μL of microsome working solution (the concentration of liver microsome protein was 0.5 mg/mL) were added to the T0, T5, T15, T30, T45, T60 and NCF60 plates, respectively. Only microsome working solution was added to the Blank60 plate. Then, the Blank60, T5, T15, T30, T45 and T60 plates, except TO and NCF60 plates, were placed in a 37° C. water bath, and preincubated for about 10 minutes.
180 μL of stop solution (the stop solution was a solution of tolbutamide (100 ng/mL) in acetonitrile and methanol (95:5, V/V)) was firstly added to the sample of TO plate, and then the NADPH regeneration system working solution was added.
50 μL of potassium phosphate buffer was added to each well of the NCF60 plate, and the plate was incubated for 60 minutes.
After the pre-incubation of Blank60, T5, T15, T30, T45 and T60 plates, 44 μL of NADPH regeneration system working solution was added to each sample well to initiate the reaction. Therefore, for the sample wells containing a test sample or control sample working solution, the final concentration of the reaction was […], the concentration of liver microsomes was 0.5 mg/mL, and the final concentrations of DMSO and acetonitrile in the reaction system were 0.01% (v/v) and 0.99% (v/v), respectively.
After being incubated for an appropriate time (e.g., 5, 15, 30, 45, and 60 min), 180 μL of stop solution was added to each well of the test sample and control sample of Blank60, T5, T15, T30, T45, T60, and NCF60 plates, respectively, to terminate the reaction.
All sample plates were shaken and centrifuged for 10 min. 80 μL of the supernatant of a test sample was taken and diluted into 240 μL of a mixture of acetonitrile and water (1:9, V/V) containing 0.1% formic acid for LC-MS/MS analysis.
By calculating the corresponding time point and the remaining percentage of a compound, the half-life T1/2 and clearance rate CLint(liver) of the compound in human liver microsome metabolism were obtained.

human HPK1 [3] = molecular target: T1, human HPK1 (Homo sapiens (Human), UniProt Q92918); assay: 33P isotope-labeled kinase activity assay (Method 1); format: biochemical; conditions: HPK1 enzyme concentration 8.1 nM; ATP concentration 15 μM
Procedure: Method 1: The IC50 value was assayed by ^33P isotope-labeled kinase activity assay to evaluate the inhibitory ability of a test compound on human HPK1.
as §1
as §2, with “3-fold” for “4-fold”, “4 μL of ADP-Glo was transferred to the 384 reaction plate, and centrifuged at 1000 rpm/min for 1 min.” left out, “8 μL of detection solution was transferred to the 384 reaction plate, and centrifuged at 1000 rpm/min for 1 min.” left out

human HPK1 [4] = molecular target: T1, human HPK1; assay: Kinase activity assay using ADP-Glo method (Method 2); format: biochemical; conditions: HPK1 enzyme concentration 0.1 nM; ATP concentration 10 μM
Procedure: Method 2: The IC50 value was assayed by the kinase activity assay using ADP-Glo method to evaluate the inhibitory ability of a test compound on human HPK1.
Enzyme buffer conditions: 50 mM Hepes (pH 7.5), 10 mM MgCl2, 1 mM EGTA, 0.01% Brij35, 2 mM DTT. […]
as §2, with “4 μL of ADP-Glo was transferred to the 384 reaction plate, and centrifuged at 1000 rpm/min for 1 min.” left out, “8 μL of detection solution was transferred to the 384 reaction plate, and centrifuged at 1000 rpm/min for 1 min.” left out
as §3

[5] = female, Balb/c, mouse, plasma, IV 2 mg/kg
[6] = female, Balb/c, mouse, plasma, PO 75 mg/kg

Chain of human GLK (Q8IVH8 whole entry): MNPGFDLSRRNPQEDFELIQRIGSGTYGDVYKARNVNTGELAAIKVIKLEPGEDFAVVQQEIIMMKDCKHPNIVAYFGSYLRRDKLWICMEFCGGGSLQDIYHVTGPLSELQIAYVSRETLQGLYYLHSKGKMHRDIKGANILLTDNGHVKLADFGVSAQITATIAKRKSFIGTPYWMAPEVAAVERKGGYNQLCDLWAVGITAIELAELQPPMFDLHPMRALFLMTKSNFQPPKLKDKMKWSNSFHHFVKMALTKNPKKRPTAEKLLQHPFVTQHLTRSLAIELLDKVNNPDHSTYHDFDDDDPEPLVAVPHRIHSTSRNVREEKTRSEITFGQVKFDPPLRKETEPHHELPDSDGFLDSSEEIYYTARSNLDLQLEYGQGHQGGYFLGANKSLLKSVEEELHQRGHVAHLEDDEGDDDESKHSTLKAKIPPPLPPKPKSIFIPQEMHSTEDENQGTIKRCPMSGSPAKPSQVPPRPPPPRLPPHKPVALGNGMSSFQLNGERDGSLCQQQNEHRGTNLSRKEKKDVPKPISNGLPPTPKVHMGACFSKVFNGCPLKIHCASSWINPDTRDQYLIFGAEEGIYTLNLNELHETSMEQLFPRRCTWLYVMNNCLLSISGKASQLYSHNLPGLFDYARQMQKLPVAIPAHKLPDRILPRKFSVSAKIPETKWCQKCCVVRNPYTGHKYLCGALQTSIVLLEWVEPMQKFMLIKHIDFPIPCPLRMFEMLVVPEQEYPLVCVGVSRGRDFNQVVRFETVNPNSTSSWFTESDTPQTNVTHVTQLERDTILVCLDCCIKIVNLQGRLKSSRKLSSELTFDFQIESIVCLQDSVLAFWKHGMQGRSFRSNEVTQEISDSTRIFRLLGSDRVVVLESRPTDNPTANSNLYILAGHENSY
T1 sequence (Q92918 whole entry): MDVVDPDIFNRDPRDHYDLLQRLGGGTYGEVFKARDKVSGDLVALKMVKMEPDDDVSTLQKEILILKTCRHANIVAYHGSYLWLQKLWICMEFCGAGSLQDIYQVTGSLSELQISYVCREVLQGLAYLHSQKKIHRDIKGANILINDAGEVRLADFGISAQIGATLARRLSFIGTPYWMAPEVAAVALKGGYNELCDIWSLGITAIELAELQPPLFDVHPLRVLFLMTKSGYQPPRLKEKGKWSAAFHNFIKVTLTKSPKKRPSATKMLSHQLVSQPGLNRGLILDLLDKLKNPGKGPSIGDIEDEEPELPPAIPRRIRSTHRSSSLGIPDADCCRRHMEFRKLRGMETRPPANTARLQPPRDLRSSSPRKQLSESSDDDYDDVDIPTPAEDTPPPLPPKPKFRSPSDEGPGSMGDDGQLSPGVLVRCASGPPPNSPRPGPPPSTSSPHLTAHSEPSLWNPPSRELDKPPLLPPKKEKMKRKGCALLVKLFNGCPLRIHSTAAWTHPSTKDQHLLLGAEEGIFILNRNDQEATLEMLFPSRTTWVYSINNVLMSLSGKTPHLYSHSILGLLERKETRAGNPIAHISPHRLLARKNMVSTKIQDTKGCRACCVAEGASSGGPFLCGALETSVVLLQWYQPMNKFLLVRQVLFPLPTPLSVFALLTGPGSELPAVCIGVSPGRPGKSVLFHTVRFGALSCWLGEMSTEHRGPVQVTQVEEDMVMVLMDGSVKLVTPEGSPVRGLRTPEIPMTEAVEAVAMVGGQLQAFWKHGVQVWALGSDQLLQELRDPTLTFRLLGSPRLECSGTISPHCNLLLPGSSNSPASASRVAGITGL

Structure (SMILES): O=C1NCc2c(-c3cnc4cc(F)ccn34)ccc(Nc3ccc4c(n3)OC[C@H]3COCCN43)c21 [Trifluoroacetate of compound 9]
- Tlast ([1]; IV 2 mg/kg): 2 h
- Tlast ([1]; PO 75 mg/kg): 8 h
- AUC(0-inf) [1, 5]: 1.95 µM·h
- AUC(0-t) [1, 5]: 1.93 µM·h
- C0 [1, 5]: 6.06 µM
- clearance [1, 5]: 36 mL/min/kg
- half-life [1, 5]: 18 min
- Vd ([1]; female, Balb/c, mouse, plasma, IV 2 mg/kg, read-out: Vdss): 0.8 L/kg
- AUC(0-inf) [1, 6]: 108 µM·h
- AUC(0-t) [1, 6]: 108 µM·h
- Cmax [1, 6]: 39.8 µM
- Tmax [1, 6]: 48 min
- half-life [1, 6]: 48 min
- bioavailability ([1]; female, Balb/c, mouse, plasma, PO 75 mg/kg vs IV 2 mg/kg, calculated using AUC0-last): 148%

Structure (SMILES): CN1Cc2nc(Nc3ccc(-c4cnc5cc(F)ccn45)c4c3C(=O)NC4)ccc2N2CCOCC2C1 (stereo not drawn) [Trifluoroacetate of compound 16]
- IC50 (human GLK): 277 nM

Structure (SMILES): Cn1ccc2c(-c3ncc(Nc4ccc5c(n4)OC[C@H]4COCCN54)c4c3CNC4=O)ccnc21 [Trifluoroacetate of compound 20]
- Papp A→B at 150 min, 2 μM (MDR1 (P-glycoprotein); pH 7.4, 2.00 μM, 150 minutes): 4.61 ×10⁻⁶ cm/s
- Papp B→A at 150 min, 2 μM (MDR1 (P-glycoprotein); pH 7.4, 2.00 μM, 150 minutes): 22.5 ×10⁻⁶ cm/s
- efflux ratio at 150 min, 2 μM (MDR1 (P-glycoprotein); pH 7.4, 2.00 μM, 150 minutes): 4.88
- Papp at 150 min, 2 μM (MDR1 (P-glycoprotein); pH 7.4, class by Papp, read-out: Conclusion of the permeability): 1 to 5.5 ×10⁻⁶ cm/s
- CLint scaled at 1 μM [2]: 63 mL/min/kg
- half-life at 1 μM [2]: 20 min
- IC50 (human GLK): 198 nM

Structure (SMILES): CN(C)Cc1cc(Nc2ncc(-c3cnc4cc(F)ccn34)c3c2C(=O)NC3)ccc1N1CCOCC1 [Compound 2]
- IC50 (human HPK1 [3]): 18 nM

Structure (SMILES): O=C1NCc2c(-c3cnc4cc(F)ccn34)ccc(Nc3ccc4c(n3)OC[C@H]3COCCN43)c21 [Compound 9]
- CLint scaled at 1 μM [2]: 39 mL/min/kg
- half-life at 1 μM [2]: 32 min
- IC50 (human GLK): 115 nM
- IC50 (human HPK1 [4]): 0.7 nM
